Data reported in patent publication US20100104552A1, “ANTIBIOTIC SYNERGISM” (priority 2008, published 2010).

Assays:
Assay type in all cases: cell-based
bacterial cells = assay: Traditional incorporation studies
[1] = test system: vancomycin-resistant Staphylococcus aureus (VRSA); assay: Cross-resistance with vancomycin resistance
bacterial membrane [2] = assay: K+-efflux of exposed bacteria; conditions: bacteria exposed to the defensin
bacterial membrane [3] = assay: Trans-membrane potential of exposed bacteria; conditions: bacteria exposed to the defensin

| Substance | incorporation of cell wall precursors (bacterial cells) | cross-resistance [1] | K+-efflux (bacterial membrane [2]) | trans-membrane potential (bacterial membrane [3]) |
| --- | --- | --- | --- | --- |
| GFGCNGPWNEDDLRCHNHCKSIKGYKGGYCAKGGFVCKCY [Defensin2114] | severely affected | No cross-resistance | No K^+-efflux could be detected | remained intact |
| Plectasin | severely affected | No cross-resistance | No K^+-efflux could be detected | remained intact |
